Here are results for seven compounds from US7772241B2, “Variolin derivatives and their use as antitumor agents” (Pharma Mar S.A., priority 2001, dated 2010).

One test concerns HT-29. The test can be described thus: Inhibition of cells growth by colorimetric (SRB) assay, HT-29. Particulars: for GI50 / CC50: Homo sapiens, HT-29, 48 h. The text has this: (§1) The finality of these assays is to interrupt the growth of a “in vitro” tumor cell culture by means a continued exhibition of the cells to the sample to be testing.
(§2) This form of the assay employs 96 well cell culture microplates of 9 mm diameter (Faircloth, 1988; Mosmann, 1983). Most of the cell lines are obtained from American Type Culture Collection (ATCC) derived from different human cancer types.
(§3) Cells are maintained in RPMI 1640 10% FBS, supplemented with 0.1 g/l penicillin and 0.1 g/l streptomycin sulphate and then incubated at 37° C., 5% CO2 and 98% humidity. For the experiments, cells were harvested from subconfluent cultures using trypsin and resuspended in fresh medium before plating.
(§4) Cells are seeded in 96 well microtiter plates, at 5×10^3 cells per well in aliquots of 195 μl medium, and they are allowed to attach to the plate surface by growing in drug free medium for 18 hours. Afterward, samples are added in aliquots of 5 μl in a ranging from 10 to 10^−8 μg/ml, dissolved in DMSO/EtOH/PBS (0.5:0.5:99). After 48 hours exposure, the antitumor effect are measured by the SRB methodology: cells are fixed by adding 50 μl of cold 50% (wt/vol) trichloroacetic acid (TCA) and incubating for 60 minutes at 4° C. Plates are washed with deionized water and dried. One hundred μl of SRB solution (0.4% wt/vol in 1% acetic acid) is added to each microtiter well and incubated for 10 minutes at room temperature. Unbound SRB is removed by washing with 1% acetic acid. Plates are air dried and bound stain is solubilized with Tris buffer. Optical densities are read on a automated spectrophotometric plate reader at a single wavelength of 490 nm.
(§5) The values for mean +/−SD of data from triplicate wells are calculated. Some parameters for cellular responses can be calculated: GI=growth inhibition, TGI=total growth inhibition (cytostatic effect) and LC=cell killing (cytotoxic effect).

The next test relates to A-549. The test can be described thus: Inhibition of cells growth by colorimetric (SRB) assay, A-549. Conditions: for GI50 / CC50: Homo sapiens, A549, 48 h.
From the text: as §1, §2, §3, §4, §5

The next test deals with LoVo. The test can be described thus: Inhibition of cells growth by colorimetric (SRB) assay, LoVo.
From the text: as §1, §2, §3, §4, §5

Another test has as its system LoVo-Dox. The test can be described thus: Inhibition of cells growth by colorimetric (SRB) assay, LoVo-Dox.
From the text: as §1, §2, §3, §4, §5

For the next test, the system named is SK-MEL-28. The test can be described thus: Inhibition of cells growth by colorimetric (SRB) assay, SK-MEL-28.
From the text: as §1, §2, §3, §4, §5

A further test relates to SK-OV-3. The test can be described thus: Inhibition of cells growth by colorimetric (SRB) assay, SK-OV-3.
From the text: as §1, §2, §3, §4, §5

A further test concerns LNCaP. The test can be described thus: Inhibition of cells growth by colorimetric (SRB) assay, LNCaP.
From the text: as §1, §2, §3, §4, §5

The subject of a further test is DU-145. The test can be described thus: Inhibition of cells growth by colorimetric (SRB) assay, DU-145.
From the text: as §1, §2, §3, §4, §5

The next test deals with PANC-1. The test can be described thus: Inhibition of cells growth by colorimetric (SRB) assay, PANC-1.
From the text: as §1, §2, §3, §4, §5

The next test concerns IGROV-1. The test can be described thus: Inhibition of cells growth by colorimetric (SRB) assay, IGROV-1.
From the text: as §1, §2, §3, §4, §5

The test system of the next test is IGROV-ET. The test can be described thus: Inhibition of cells growth by colorimetric (SRB) assay, IGROV-ET.
From the text: as §1, §2, §3, §4, §5

Another test has as its system K-562. The test can be described thus: Inhibition of cells growth by colorimetric (SRB) assay, K-562.
From the text: as §1, §2, §3, §4, §5

Where [1] appears, read: read-out: GI50 HT-29, SRB assay, 48 hours exposure.
The mark [2] stands for this setting: read-out: LC50 HT-29, SRB assay, 48 hours exposure.
Where [3] appears, read: read-out: GI50 A-549, SRB assay, 48 hours exposure.
The mark [4] stands for this setting: read-out: LC50 A-549, SRB assay, 48 hours exposure.

Like-named read-outs stand apart in the source and are kept apart here.

For orientation: GI50 means the concentration giving 50% growth inhibition. In the case of `COc1ccc(CNc2nccc(-c3c4c(OCc5ccccc5)ccnc4n4c(NCc5ccc(OC)cc5)nccc34)n2)cc1` [Compound 53], the GI50 in the test with HT-29 (setting [1]) and in the test on A-549 (setting [3]) was 16 µM throughout. The CC50 with HT-29 (setting [2]) and with A-549 (setting [4]) was 16 µM each time. Besides, in the test on HT-29 (SRB assay, 48 hours exposure), the “TGI HT-29” value is given as 1.60E−05. Besides, in the test on A-549 (SRB assay, 48 hours exposure), the “TGI A-549” value is on record as 1.60E−05.

Consider `CSc1nccc2c(C(C)C)c3cccnc3n12` [Compound 61], for which the 50% growth inhibitory concentration (GI50) with LoVo (Homo sapiens, LoVo, 48 h, read-out: GI50 LOVO, SRB assay, 48 hours exposure) was 23 µM; with HT-29 (setting [1]), 28.9 µM; in the test on LoVo-Dox (Homo sapiens, 48 h, read-out: GI50 LOVO-DOX, SRB assay, 48 hours exposure), 13.7 µM; in the test on SK-MEL-28 (Homo sapiens, SK-MEL-28, 48 h, read-out: GI50 MEL-28, SRB assay, 48 hours exposure) it was 20.2 µM; with SK-OV-3 (Homo sapiens, SK-OV-3, 48 h, read-out: GI50 SKOV-3, SRB assay, 48 hours exposure) it was 12.4 µM; in the test on LNCaP (Homo sapiens, LNCaP, 48 h, read-out: GI50 LN-caP, SRB assay, 48 hours exposure) it was 8.7 µM. Besides, the GI50 in the test on DU-145 (Homo sapiens, DU-145, 48 h, read-out: GI50 DU-145, SRB assay, 48 hours exposure) was 14.9 µM; in the test with PANC-1 (Homo sapiens, PANC-1, 48 h, read-out: GI50 PANC-1, SRB assay, 48 hours exposure), 11.5 µM; in the test with IGROV-1 (Homo sapiens, IGROV-1, 48 h, read-out: GI50 IGROV, SRB assay, 48 hours exposure) it was 15.7 µM; in the test on IGROV-ET (Homo sapiens, 48 h, read-out: GI50 IGROV-ET, SRB assay, 48 hours exposure), 7.34 µM; in the test with A-549 (setting [3]), 24.6 µM; with K-562 (Homo sapiens, K562, 48 h, read-out: GI50 K-562, SRB assay, 48 hours exposure), 9.79 µM. The CC50 with LoVo (Homo sapiens, LoVo, 48 h, read-out: LC50 LOVO, SRB assay, 48 hours exposure) was not below 38.9 µM; in the test on HT-29 (setting [2]), not below 38.9 µM; with LoVo-Dox (Homo sapiens, 48 h, read-out: LC50 LOVO-DOX, SRB assay, 48 hours exposure), not below 38.9 µM; in the test with SK-MEL-28 (Homo sapiens, SK-MEL-28, 48 h, read-out: LC50 MEL-28, SRB assay, 48 hours exposure), not below 38.9 µM; with SK-OV-3 (Homo sapiens, SK-OV-3, 48 h, read-out: LC50 SKOV-3, SRB assay, 48 hours exposure), not below 38.9 µM; in the test with LNCaP (Homo sapiens, LNCaP, 48 h, read-out: LC50 LN-caP, SRB assay, 48 hours exposure), 37.1 µM. For the same compound, the CC50 in the test on DU-145 (Homo sapiens, DU-145, 48 h, read-out: LC50 DU-145, SRB assay, 48 hours exposure) was not below 38.9 µM; with PANC-1 (Homo sapiens, PANC-1, 48 h, read-out: LC50 PANC-1, SRB assay, 48 hours exposure), not below 38.9 µM; in the test on IGROV-1 (Homo sapiens, IGROV-1, 48 h, read-out: LC50 IGROV, SRB assay, 48 hours exposure), not below 38.9 µM; in the test on IGROV-ET (Homo sapiens, 48 h, read-out: LC50 IGROV-ET, SRB assay, 48 hours exposure), not below 38.9 µM; with A-549 (setting [4]) it was not below 38.9 µM; with K-562 (Homo sapiens, K562, 48 h, read-out: LC50 K-562, SRB assay, 48 hours exposure) it was not below 38.9 µM. The “TGI LOVO” value with LoVo (SRB assay, 48 hours exposure) came out at 3.89E−05. Moreover, in the test with HT-29 (SRB assay, 48 hours exposure), the “TGI HT-29” value was found to be 3.89E−05. Further, the “TGI LOVO-DOX” value in the test with LoVo-Dox (SRB assay, 48 hours exposure) is recorded as 3.89E−05. Moreover, in the test with SK-MEL-28 (SRB assay, 48 hours exposure), the “TGI MEL-28” value worked out at 3.89E−05. The “TGI SKOV-3” value in the test with SK-OV-3 (SRB assay, 48 hours exposure) is reported as 2.96E−05. In addition, in the test on LNCaP (SRB assay, 48 hours exposure), the “TGI LN-caP” value came out at 1.80E−05. Besides, the “TGI DU-145” value in the test with DU-145 (SRB assay, 48 hours exposure) stood at 3.89E−05. Also, in the test on PANC-1 (SRB assay, 48 hours exposure), the “TGI PANC-1” value amounted to 3.83E−05. Moreover, in the test with IGROV-1 (SRB assay, 48 hours exposure), the “TGI IGROV” value came out at 3.49E−05. In addition, the “TGI IGROV-ET” value in the test on IGROV-ET (SRB assay, 48 hours exposure) is reported as 2.27E−05. Also, the “TGI A-549” value in the test on A-549 (SRB assay, 48 hours exposure) turned out to be 3.89E−05. The “TGI K-562” value in the test with K-562 (SRB assay, 48 hours exposure) is given as 2.44E−05.

For the compound `COC(=O)C(C(=O)OC)c1nccc(-c2c3cccnc3n3c(N)nccc23)n1` [Compound 74], the GI50 with HT-29 (setting [1]) came out at 1.22 µM; in the test with A-549 (setting [3]) it was 5.35 µM. Besides, the CC50 in the test with HT-29 (setting [2]) came to 25.5 µM; in the test on A-549 (setting [4]), 21.3 µM. Besides, in the test on HT-29 (SRB assay, 48 hours exposure), the “TGI HT-29” value is reported as 2.55E−05. For the same compound, the “TGI A-549” value in the test on A-549 (SRB assay, 48 hours exposure) is recorded as 1.07E−05.

In the case of `COc1ccc(COc2nccc(-c3c4cccnc4n4c(N)nccc34)n2)cc1` [Compound 79], the GI50 was found to be 25.1 µM in the test on HT-29 (read-out: HT-29 GI50, SRB assay, 48 hours exposure) and 25.1 µM with A-549 (read-out: A-549 GI50, SRB assay, 48 hours exposure). Moreover, the CC50 in the test with HT-29 (read-out: HT-29 LC50, SRB assay, 48 hours exposure) was 25.1 µM; in the test with A-549 (read-out: A-549 LC50, SRB assay, 48 hours exposure), 25.1 µM. In addition, the “HT-29 TGI” value with HT-29 (SRB assay, 48 hours exposure) was 2.51E−05. The “A-549 TGI” value in the test on A-549 (SRB assay, 48 hours exposure) came to 2.51E−05.

On to `Nc1nccc(-c2c3c(OCc4ccccc4)ccnc3n3c(N)nccc23)n1` [Compound 96], for which the GI50 in the test on HT-29 (setting [1]) worked out at 16.2 µM; in the test with A-549 (setting [3]), 12.3 µM. Also, the CC50 in the test with HT-29 (setting [2]) and in the test with A-549 (setting [4]) was 26.1 µM throughout. The “TGI HT-29” value with HT-29 (SRB assay, 48 hours exposure) stood at 2.61E−05. Also, the “TGI A-549” value in the test with A-549 (SRB assay, 48 hours exposure) turned out to be 2.61E−05.

As to `CCOc1nccc(-c2c3c(OCc4ccccc4)ccnc3n3c(N)nccc23)n1` [Compound 103], the GI50 in the test with HT-29 (setting [1]) worked out at 11.9 µM; in the test on A-549 (setting [3]) it was 11.5 µM. In addition, the CC50 with HT-29 (setting [2]) and in the test with A-549 (setting [4]) was 24.2 µM throughout. In the test on HT-29 (SRB assay, 48 hours exposure), the “TGI HT-29” value is reported as 2.42E−05. The “TGI A-549” value in the test with A-549 (SRB assay, 48 hours exposure) came out at 2.42E−05.

With `Nc1nccc2c(-c3ccnc(OCc4ccccc4)n3)c3c(OCc4ccccc4)ccnc3n12` [Compound 104], the GI50 in the test with HT-29 (setting [1]) and in the test with A-549 (setting [3]) was 21.1 µM throughout. For the same compound, the CC50 with HT-29 (setting [2]) and in the test with A-549 (setting [4]) was 21.1 µM each time. For the same compound, the “TGI HT-29” value in the test on HT-29 (SRB assay, 48 hours exposure) turned out to be 2.11E−05. Moreover, in the test on A-549 (SRB assay, 48 hours exposure), the “TGI A-549” value is recorded as 2.11E−05.
